Source: PubChem BioAssay (NCI)
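Growth conditions: 96-well plates. Treatment: test compound, 48 hours, 5 concentrations. Analysis: linear interpolation between bracketing concentrations; unreached endpoints set to highest concentration. GI50: concentration for 50% inhibition of growth. The concentration for full growth arrest is given as TGI.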

Assays:
Assay in all cases: DTP human tumour cell line panel, 48 h
SK-MEL-5 melanoma = system: SK-MEL-5 melanoma
UACC-62 melanoma = system: UACC-62 melanoma
SF-268 CNS = system: SF-268 CNS
NCI-H23 lung = system: NCI-H23 lung
KM12 colon = system: KM12 colon
COLO 205 colon = system: COLO 205 colon
UO-31 renal = system: UO-31 renal
SNB-19 CNS = system: SNB-19 CNS
NCI-H226 lung = system: NCI-H226 lung
NCI/ADR-RES ovarian = system: NCI/ADR-RES ovarian
SK-MEL-28 melanoma = system: SK-MEL-28 melanoma
786-0 renal = system: 786-0 renal
HCC-2998 colon = system: HCC-2998 colon
HCT-15 colon = system: HCT-15 colon
A498 renal = system: A498 renal
SK-OV-3 ovarian = system: SK-OV-3 ovarian
SF-295 CNS = system: SF-295 CNS
M14 melanoma = system: M14 melanoma
HOP-92 NSCLC = system: HOP-92 NSCLC
CAKI-1 renal = system: CAKI-1 renal
SR leukemia = system: SR leukemia
MCF7 breast = system: MCF7 breast
SNB-75 CNS = system: SNB-75 CNS
SK-MEL-2 melanoma = system: SK-MEL-2 melanoma
U251 CNS = system: U251 CNS
MDA-MB-435 = system: MDA-MB-435
DU-145 prostate = system: DU-145 prostate
A549 NSCLC = system: A549 NSCLC
HS 578T breast = system: HS 578T breast
IGROV1 ovarian = system: IGROV1 ovarian
SF-539 CNS = system: SF-539 CNS
ACHN renal = system: ACHN renal
HCT-116 colon = system: HCT-116 colon
SW-620 colon = system: SW-620 colon
NCI-H460 lung = system: NCI-H460 lung
TK-10 renal = system: TK-10 renal
MOLT-4 leukemia = system: MOLT-4 leukemia
SN12C renal = system: SN12C renal
BT-549 breast = system: BT-549 breast
OVCAR-8 ovarian = system: OVCAR-8 ovarian
MALME-3M melanoma = system: MALME-3M melanoma
OVCAR-4 ovarian = system: OVCAR-4 ovarian
RXF 393 renal = system: RXF 393 renal
OVCAR-5 ovarian = system: OVCAR-5 ovarian
OVCAR-3 ovarian = system: OVCAR-3 ovarian
HOP-62 NSCLC = system: HOP-62 NSCLC
K-562 leukemia = system: K-562 leukemia
HL-60(TB) leukemia = system: HL-60(TB) leukemia
MDA-MB-231 breast = system: MDA-MB-231 breast
CCRF-CEM leukemia = system: CCRF-CEM leukemia
T-47D breast = system: T-47D breast
RPMI-8226 leukemia = system: RPMI-8226 leukemia
UACC-257 melanoma = system: UACC-257 melanoma
PC-3 prostate = system: PC-3 prostate
HT29 colon = system: HT29 colon

`Cc1ccc2cccc(OC(=O)Nc3cccc(C(F)(F)F)c3)c2n1` showed a GI50 (SK-MEL-5 melanoma) of 7.41 µM, a TGI (SK-MEL-5 melanoma) of 20.1 µM and a GI50 (UACC-62 melanoma) of 3.05 µM. The TGI (UACC-62 melanoma) was 11.2 µM, the GI50 (SF-268 CNS) was 4.26 µM and the TGI (SF-268 CNS) was 18.3 µM. It also gave a GI50 (NCI-H23 lung) of 2.78 µM, a TGI (NCI-H23 lung) of 10 µM and a GI50 (KM12 colon) of 3.19 µM. For the same compound, the TGI (KM12 colon) was 10.9 µM, the GI50 (COLO 205 colon) was 3.47 µM and the TGI (COLO 205 colon) was 10.3 µM. It also gave a GI50 (UO-31 renal) of 2.4 µM, a TGI (UO-31 renal) of 8.99 µM and a GI50 (SNB-19 CNS) of 2.89 µM. The TGI (SNB-19 CNS) was 12.5 µM, the GI50 (NCI-H226 lung) was 3.61 µM and the TGI (NCI-H226 lung) was 14.1 µM. The GI50 (NCI/ADR-RES ovarian) was 3.96 µM, the TGI (NCI/ADR-RES ovarian) was 33.3 µM and the GI50 (SK-MEL-28 melanoma) was 4.34 µM. The TGI (SK-MEL-28 melanoma) was 16.3 µM, the GI50 (786-0 renal) was 4.82 µM and the TGI (786-0 renal) was 22.2 µM. The GI50 (HCC-2998 colon) was 5.29 µM, the TGI (HCC-2998 colon) was 18.5 µM and the GI50 (HCT-15 colon) was 3.14 µM. It also gave a TGI (HCT-15 colon) of 11.3 µM, a GI50 (A498 renal) of 2.59 µM and a TGI (A498 renal) of 9.46 µM. For the same compound, the GI50 (SK-OV-3 ovarian) was 4.37 µM, the TGI (SK-OV-3 ovarian) was 16.2 µM and the GI50 (SF-295 CNS) was 2.5 µM. For the same compound, the TGI (SF-295 CNS) was 7.25 µM, the GI50 (M14 melanoma) was 4.06 µM and the TGI (M14 melanoma) was 16.2 µM. The GI50 (HOP-92 NSCLC) was 2.21 µM, the TGI (HOP-92 NSCLC) was 6.66 µM and the GI50 (CAKI-1 renal) was 3.25 µM. For the same compound, the TGI (CAKI-1 renal) was 11.8 µM, the GI50 (SR leukemia) was 5.6 µM and the TGI (SR leukemia) was greater than 100 µM. It also gave a GI50 (MCF7 breast) of 2.26 µM, a TGI (MCF7 breast) of 8.05 µM and a GI50 (SNB-75 CNS) of 2.39 µM. It also gave a TGI (SNB-75 CNS) of 11.7 µM, a GI50 (SK-MEL-2 melanoma) of 3.47 µM and a TGI (SK-MEL-2 melanoma) of 12.1 µM. For the same compound, the GI50 (U251 CNS) was 3.07 µM, the TGI (U251 CNS) was 12.2 µM and the GI50 (MDA-MB-435) was 2.91 µM. The TGI (MDA-MB-435) was 10.9 µM, the GI50 (DU-145 prostate) was 3.95 µM and the TGI (DU-145 prostate) was 82.4 µM. The GI50 (A549 NSCLC) was 3.44 µM, the TGI (A549 NSCLC) was 13.4 µM and the GI50 (HS 578T breast) was 3.53 µM. For the same compound, the TGI (HS 578T breast) was 18.9 µM, the GI50 (IGROV1 ovarian) was 4.29 µM and the TGI (IGROV1 ovarian) was 17.4 µM. It also gave a GI50 (SF-539 CNS) of 5.42 µM, a TGI (SF-539 CNS) of 18.1 µM and a GI50 (ACHN renal) of 3.04 µM. The TGI (ACHN renal) was 12.4 µM, the GI50 (HCT-116 colon) was 3.27 µM and the TGI (HCT-116 colon) was 11.1 µM. For the same compound, the GI50 (SW-620 colon) was 3.46 µM, the TGI (SW-620 colon) was 13.3 µM and the GI50 (NCI-H460 lung) was 2.84 µM. For the same compound, the TGI (NCI-H460 lung) was 7.8 µM, the GI50 (TK-10 renal) was 3.87 µM and the TGI (TK-10 renal) was 18.2 µM. It also gave a GI50 (MOLT-4 leukemia) of 3.61 µM, a TGI (MOLT-4 leukemia) of 24.2 µM and a GI50 (SN12C renal) of 2.66 µM. It also gave a TGI (SN12C renal) of 8.18 µM, a GI50 (BT-549 breast) of 10.7 µM and a TGI (BT-549 breast) of 26.8 µM. For the same compound, the GI50 (OVCAR-8 ovarian) was 3.5 µM, the TGI (OVCAR-8 ovarian) was 14.9 µM and the GI50 (MALME-3M melanoma) was 3.03 µM. For the same compound, the TGI (MALME-3M melanoma) was 10 µM, the GI50 (OVCAR-4 ovarian) was 2.09 µM and the TGI (OVCAR-4 ovarian) was 10.3 µM. It also gave a GI50 (RXF 393 renal) of 5.3 µM, a TGI (RXF 393 renal) of 21.9 µM and a GI50 (OVCAR-5 ovarian) of 6.44 µM. It also gave a TGI (OVCAR-5 ovarian) of 32.1 µM, a GI50 (OVCAR-3 ovarian) of 3.35 µM and a TGI (OVCAR-3 ovarian) of 9.61 µM. For the same compound, the GI50 (HOP-62 NSCLC) was 5.83 µM, the TGI (HOP-62 NSCLC) was 18.6 µM and the GI50 (K-562 leukemia) was 3.63 µM. For the same compound, the TGI (K-562 leukemia) was 17.8 µM, the GI50 (HL-60(TB) leukemia) was 5.41 µM and the TGI (HL-60(TB) leukemia) was 38.4 µM. For the same compound, the GI50 (MDA-MB-231 breast) was 2.37 µM, the TGI (MDA-MB-231 breast) was 7.26 µM and the GI50 (CCRF-CEM leukemia) was 2.86 µM. For the same compound, the TGI (CCRF-CEM leukemia) was 19.2 µM, the GI50 (T-47D breast) was 3.05 µM and the TGI (T-47D breast) was 13.4 µM. It also gave a GI50 (RPMI-8226 leukemia) of 2.52 µM, a TGI (RPMI-8226 leukemia) of 7.21 µM and a GI50 (UACC-257 melanoma) of 3.4 µM. It also gave a TGI (UACC-257 melanoma) of 12.9 µM, a GI50 (PC-3 prostate) of 2.74 µM and a TGI (PC-3 prostate) of 9.79 µM. It also gave a GI50 (HT29 colon) of 3.45 µM and a TGI (HT29 colon) of 12 µM.
